Measurements: ChEMBL document CHEMBL1130567, “A simplified template approach towards the synthesis of a potent beta-3 adrenoceptor agonist at the human receptor” (Bioorg Med Chem Lett, 1997)

Legend:
Assay type in all cases: functional, cell-based; call rule not given here
[1] = molecular target: T1, Beta-3 adrenergic receptor (Homo sapiens, UniProt P13945); assay: Agonist efficacy for human Beta-3 adrenergic receptor expressed in chinese hamster ovary cells
[2] = molecular target: T1, Beta-3 adrenergic receptor; assay: Beta-3 agonist efficacy in an adenylate cyclase assay performed on chinese hamster ovary cells transfected with human Beta-3 adrenergic receptor; inactive
[3] = molecular target: T1, Beta-3 adrenergic receptor; assay: Beta-3 agonist efficacy in an adenylate cyclase assay performed on chinese hamster ovary cells transfected with human Beta-3 adrenergic receptor; Inactive

T1 sequence (P13945 whole entry): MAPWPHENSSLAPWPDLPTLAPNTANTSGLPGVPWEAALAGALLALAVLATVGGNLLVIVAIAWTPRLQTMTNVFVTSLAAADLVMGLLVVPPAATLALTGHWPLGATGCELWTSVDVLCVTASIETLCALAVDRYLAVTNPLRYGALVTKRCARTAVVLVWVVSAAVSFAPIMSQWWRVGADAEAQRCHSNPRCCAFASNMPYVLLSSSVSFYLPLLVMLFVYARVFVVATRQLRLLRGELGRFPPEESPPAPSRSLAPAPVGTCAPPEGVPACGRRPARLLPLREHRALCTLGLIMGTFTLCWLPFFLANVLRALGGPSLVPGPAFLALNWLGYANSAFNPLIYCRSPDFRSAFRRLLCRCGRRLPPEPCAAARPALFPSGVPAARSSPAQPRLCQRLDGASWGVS

## COc1ccc(CCNC[C@@H](O)COc2ccc(O)c(O)c2)cc1
[1]
  EC50: 820 nM

## COc1ccc(CCNC[C@@H](O)COc2cc(O)cc(CO)c2)cc1
[2]
  EC50: Not Active

## COc1ccc(CCNC[C@@H](O)COc2ccc3c(c2)NC(=O)CO3)cc1
[2]
  EC50: Not Active

## COc1ccc(CCNC[C@@H](O)COc2cccc3c2CCC(=O)N3)cc1
[2]
  EC50: Not Active

## COc1ccc(CCNC[C@@H](O)COc2ccccc2O)cc1
[2]
  EC50: Not Active

## COc1ccc(CCNC[C@@H](O)COc2ccc(O)cc2CO)cc1
[2]
  EC50: Not Active

## COc1ccc(CCNC[C@@H](O)COc2ccc(O)c(CO)c2)cc1
[1]
  EC50: 4700 nM

## CC(C)(C)NCC(O)COc1cccc2[nH]c(=O)[nH]c12 (stereo unspecified) [CGP-12177]
[1]
  EC50: 2000 nM

## COc1ccc(CCNC[C@@H](O)COc2cccc3nc(O)ccc23)cc1
[2]
  EC50: Not Active

## COc1ccc(CCNC[C@@H](O)COc2ccc(O)cc2)cc1
[1]
  EC50: 1000 nM

## COc1ccc(CCNC[C@@H](O)COc2ccc(O)c(NS(C)(=O)=O)c2)cc1
[1]
  EC50: 400 nM

## C[C@H](Cc1ccc(OCP(=O)(O)c2ccccc2)cc1)NC[C@H](O)COc1ccc(O)c(NS(C)(=O)=O)c1
[1]
  EC50: 120 nM

## CCCCCCP(=O)(O)COc1ccc(CCNC[C@H](O)COc2ccc(O)c3c2CCC(=O)N3)cc1
[1]
  EC50: 290 nM

## COc1ccc(CCNC[C@@H](O)COc2ccc(O)c(F)c2)cc1
[1]
  EC50: 7900 nM

## COc1ccc(CCNC[C@@H](O)COc2ccc(F)c(O)c2)cc1
[1]
  EC50: 1100 nM

## COc1ccc(CCNC[C@H](O)COc2cccc(O)c2O)cc1
[3]
  EC50: Not Active

## COc1ccc(CCNC[C@@H](O)COc2cccc3[nH]c(=O)[nH]c23)cc1
[1]
  EC50: 2200 nM

## COc1ccc(CCNC[C@@H](O)COc2ccc(F)c(CO)c2)cc1
[2]
  EC50: Not Active

## COc1ccc(CCNC[C@@H](O)COc2cccc(O)c2)cc1
[1]
  EC50: 2000 nM

## COc1ccc(CCNC[C@@H](O)COc2cccc3[nH]c(C(F)(F)F)nc23)cc1
[2]
  EC50: Not Active

## COc1ccc(CCNC[C@@H](O)COc2ccc(O)c3c2CCC(=O)N3)cc1
[1]
  EC50: 560 nM
